Test results reported in patent publication US8507533B2, “Glucagon receptor modulators” (Pfizer Inc., priority 2011, dated 2013).

Biological target: human glucagon receptor (Homo sapiens (Human), UniProt P47871)
Assay: Glucagon cAMP Assay (Cisbio cAMP detection)
Assay type: cell-based
Conditions: CHOK1 cells stably transfected with the human glucagon receptor; block of glucagon induced cAMP production; Kb by modified Cheng-Prusoff equation
Experimental: The Cisbio cAMP detection assay is used to determine the ability of punitive glucagon antagonist to block glucagon induced cAMP production. Potential glucagon antagonists are re-suspended and diluted in 100% DMSO. Prior to use in the Glucagon cAMP assay 100×DMSO compound stocks are diluted 20× with DMEM-F12 media (Invitrogen) containing either 0.1% or 4% BSA. […] 2 μls of 5% DMSO or known glucagon antagonist are added to each plate to define the assay window. CHOK1 cells stably transfected with the human glucagon receptor are removed from culture flasks with cell dissociation buffer. Cell pellets are re-suspended, at a concentration of 8.3e^5 cells/ml in DMEM-F12 with or without 4% BSA and 200 uM IBMX. 6 μls of cell suspensions are added to the assay plates. Plates are incubated for 20 min at room temperature prior to the addition of a 100 μM challenge dose of glucagon. On a separate plate glucagon dose response curves are run to determine the EC50 of glucagon. After a 30 min room temperature incubation the reaction is terminated by the addition of lysis buffer containing the cAMP detection reagents. Plates are incubated for an additional 60 min at room temperature prior to being read on the Perkin Elmer fluorescent plate reader. Raw is converted to nM of cAMP produced based on a cAMP standard curve. Converted data is then analyzed using the Pfizer data analysis program. IC50 values are determined from the generated sigmoidal dose response curves. Kb values are calculated using a modified Cheng-Prusoff equation. N is the number of times the compound was assayed.

Chain of human glucagon receptor (P47871 26-477): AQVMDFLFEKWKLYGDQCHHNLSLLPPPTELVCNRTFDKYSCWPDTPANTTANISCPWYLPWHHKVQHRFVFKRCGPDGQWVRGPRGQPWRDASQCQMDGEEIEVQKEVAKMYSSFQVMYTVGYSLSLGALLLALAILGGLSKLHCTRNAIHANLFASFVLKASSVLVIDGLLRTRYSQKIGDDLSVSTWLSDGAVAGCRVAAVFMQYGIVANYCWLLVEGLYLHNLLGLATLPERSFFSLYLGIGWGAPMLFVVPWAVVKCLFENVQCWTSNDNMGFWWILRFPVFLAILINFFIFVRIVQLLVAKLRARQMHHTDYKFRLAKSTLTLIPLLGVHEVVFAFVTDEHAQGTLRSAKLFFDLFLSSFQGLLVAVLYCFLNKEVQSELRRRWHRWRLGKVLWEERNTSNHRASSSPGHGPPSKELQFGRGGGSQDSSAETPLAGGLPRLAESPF

Row | SMILES | Kb [nM]
1 | CCCC(Nc1ccc(-n2cnc(C(F)(F)F)c2)c(C)c1)c1ccc(C(=O)NCCC(=O)O)cc1 (racemic) [Example 1, (+/−)-3-(4-(1-(3-methyl-4-(4-(trifluoromethyl)-1H-imidazol-1-yl)phenylamino)butyl)benzamido)propanoic acid] | 1500
2 | CC(C)CC(Oc1ccc(C(=O)NCCC(=O)O)cc1)c1ccc(-n2cnc(C(F)(F)F)c2)cc1 (racemic) [Example 2, (+/−)-3-(4-(3-methyl-1-(4-(4-(trifluoromethyl)-1H-imidazol-1-yl)phenyl)butoxy)benzamido)propanoic acid] | 5280
3 | CCCC(Oc1ccc(-n2cc(C(F)(F)F)cn2)cc1)c1ccc(C(=O)NCCC(=O)O)cn1 (racemic) [Example 3, (+/−)-3-(6-(1-(4-(4-(trifluoromethyl)-1H-pyrazol-1-yl)phenoxy)butyl)nicotinamido)propanoic acid] | 1820
4 | CC(C)CC(Cc1ccc(-n2cc(C(F)(F)F)cn2)cc1)c1ccc(C(=O)NCCC(=O)O)cc1 (racemic) [Example 4, (+/−)-3-(4-(4-methyl-1-(4-(4-(trifluoromethyl)-1H-pyrazol-1-yl)phenyl)pentan-2-yl)benzamido)propanoic acid] | 1270
5 | O=C(O)CCNC(=O)c1ccc(C(Nc2ccc(-n3cnc(C(F)(F)F)c3)nc2)C2CCCC2)cc1 (racemic) [Example 8, (+/−)-3-(4-(cyclopentyl(6-(4-(trifluoromethyl)-1H-imidazol-1-yl)pyridine-3-ylamino)methyl)benzamido)propanoic acid] | 155
6 | CCCC(Nc1ccc(-n2cnc(C(F)(F)F)c2)nc1)c1ccc(C(=O)NCCC(=O)O)cc1 (racemic) [Example 9, (+/−)-3-(4-(1-(6-(4-(trifluoromethyl)-1H-imidazol-1-yl)pyridine-3-ylamino)butyl)benzamido)propanoic acid] | 572
7 | CCCC(Oc1ccc(-n2cc(SC)cn2)cc1)c1ccc(C(=O)NCCC(=O)O)cc1 (racemic) [Example 20, (+/−)-3-(4-(1-(4-(4-(methylthio)-1H-pyrazol-1-yl)phenoxy)butyl)benzamido)propanoic acid] | 800
8 | CCCC(Oc1ccc(-n2ccc(C(C)(C)C)n2)cc1)c1ccc(C(=O)NCCC(=O)O)cc1 (racemic) [Example 21, (+/−)-3-(4-(1-(4-(3-tert-butyl-1-1H-pyrazol-1-yl)phenoxy)butyl)benzamido)propanoic acid] | 824
9 | CCCC(Oc1ccc(-n2cc(CC)c(C)n2)cc1)c1ccc(C(=O)NCCC(=O)O)cc1 (racemic) [Example 24, (+/−)-3-(4-(1-(4-(4-ethyl-3-methyl-1H-pyrazol-1-yl)phenoxy)butyl)benzamido)propanoic acid] | 1030
10 | CCCC(Oc1ccc(-n2nc(CC)cc2CC)cc1)c1ccc(C(=O)NCCC(=O)O)cc1 (racemic) [Example 25, (+/−)-3-(4-(1-(4-(3,5-diethyl-1H-pyrazol-1-yl)phenoxy)butyl)benzamido)propanoic acid] | 1120
11 | CCCC(Oc1ccc(-n2ccc(C(C)C)n2)cc1)c1ccc(C(=O)NCCC(=O)O)cc1 (racemic) [Example 27, (+/−)-3-(4-(1-(4-(3-isopropyl-1H-pyrazol-1-yl)phenoxy)butyl)benzamido)propanoic acid] | 1080
12 | CCCC(Oc1ccc(-n2ccc(C)n2)cc1)c1ccc(C(=O)NCCC(=O)O)cc1 (racemic) [Example 29, (+/−)-3-(4-(1-(4-(3-methyl-1H-pyrazol-1-yl)phenoxy)butyl)benzamido)propanoic acid] | 1360
13 | CCCC(Oc1ccc(-n2nccn2)cc1)c1ccc(C(=O)NCCC(=O)O)cc1 (racemic) [Example 30, (+/−)-3-(4-(1-(4-(2H-1,2,3-triazol-2-yl)phenoxy)butyl)benzamido)propanoic acid] | 1410
14 | CCCC(Oc1ccc(-n2nc(C)cc2OCC)cc1)c1ccc(C(=O)NCCC(=O)O)cc1 (racemic) [Example 32, (+/−)-3-(4-(1-(4-(5-ethoxy-3-methyl-1H-pyrazol-1-yl)phenoxy)butyl)benzamido)propanoic acid] | 1590
15 | CCCC(Oc1ccc(-n2nc(C)cc2OC)cc1)c1ccc(C(=O)NCCC(=O)O)cc1 (racemic) [Example 33, (+/−)-3-(4-(1-(4-(5-methoxy-3-methyl-1H-pyrazol-1-yl)phenoxy)butyl)benzamido)propanoic acid] | 1560
16 | CCCCc1cn(-c2ccc(OC(CCC)c3ccc(C(=O)NCCC(=O)O)cc3)cc2)cn1 (racemic) [Example 34, (+/−)-3-(4-(1-(4-(4-butyl-1H-imidazol-1-yl)phenoxy)butyl)benzamido)propanoic acid] | 1710
17 | CCCC(Oc1ccc(-n2c(C)c(C)c(C)c2C#N)cc1)c1ccc(C(=O)NCCC(=O)O)cc1 (racemic) [Example 35, (+/−)-3-(4-(1-(4-(2-cyano-3,4,5-trimethyl-1H-pyrrol-1-yl)phenoxy)butyl)benzamido)propanoic acid] | 1790

Row | SMILES | Kb [nM]
18 | CCCC(Oc1ccc(-n2cc(C)c(C#N)c2C)cc1)c1ccc(C(=O)NCCC(=O)O)cc1 (racemic) [Example 36, (+/−)-3-(4-(1-(4-(3-cyano-2,4-dimethyl-1H-pyrrol-1-yl)phenoxy)butyl)benzamido)propanoic acid] | 1820
19 | CCCC(Oc1ccc(-n2ccc(C)c2C#N)cc1)c1ccc(C(=O)NCCC(=O)O)cc1 (racemic) [Example 37, (+/−)-3-(4-(1-(4-(2-cyano-3-methyl-1H-pyrrol-1-yl)phenoxy)butyl)benzamido)propanoic acid] | 1760
20 | CCCc1ccn(-c2ccc(OC(CCC)c3ccc(C(=O)NCCC(=O)O)cn3)cc2)n1 (racemic) [Example 38, (+/−)-3-(6-(1-(4-(3-propyl-1H-pyrazol-1-yl)phenoxy)butyl)nicotinamido)propanoic acid] | 2130
21 | CCCC(Oc1ccc(-n2cc(C)c(C)n2)cc1)c1ccc(C(=O)NCCC(=O)O)cc1 (racemic) [Example 39, (+/−)-3-(4-(1-(4-(3,4-dimethyl-1H-pyrazol-1-yl)phenoxy)butyl)benzamido)propanoic acid] | 2460
22 | CCCC(Oc1ccc(-n2ccn3nccc23)cc1)c1ccc(C(=O)NCCC(=O)O)cc1 (racemic) [Example 41, (+/−)-3-(4-(1-(4-(1H-imidazo[1,2-b]pyrazol-1-yl)phenoxy)butyl)benzamido)propanoic acid] | 2840
23 | CCCC(Oc1ccc(-n2ccc(CC)n2)cc1)c1ccc(C(=O)NCCC(=O)O)cc1 (racemic) [Example 42, (+/−)-3-(4-(1-(4-(3-ethyl-1H-pyrazol-1-yl)phenoxy)butyl)benzamido)propanoic acid] | 2810
24 | CCCC(Oc1ccc(-n2cnc(Cl)c2C)cc1)c1ccc(C(=O)NCCC(=O)O)cc1 (racemic) [Example 43, (+/−)-3-(4-(1-(4-(4-chloro-5-methyl-1H-imidazol-1-yl)phenoxy)butyl)benzamido)propanoic acid] | 2910
25 | CCCC(Oc1ccc(-n2cnc(CC)c2CC)cc1)c1ccc(C(=O)NCCC(=O)O)cc1 (racemic) [Example 44, (+/−)-3-(4-(1-(4-(4,5-diethyl-1H-imidazol-1-yl)phenoxy)butyl)benzamido)propanoic acid] | 3110
26 | CCCC(Oc1ccc(-n2nc(C)cc2C)cc1)c1ccc(C(=O)NCCC(=O)O)cc1 (racemic) [Example 45, (+/−)-3-(4-(1-(4-(3,5-dimethyl-1H-pyrazol-1-yl)phenoxy)butyl)benzamido)propanoic acid] | 3350
27 | CCCC(Oc1ccc(-n2cnc(C)n2)cc1)c1ccc(C(=O)NCCC(=O)O)cc1 (racemic) [Example 46, (+/−)-3-(4-(1-(4-(3-methyl-1H-1,2,4-triazol-1-yl)phenoxy)butyl)benzamido)propanoic acid] | 6890
28 | CCCC(Oc1ccc(-n2cncn2)cc1)c1ccc(C(=O)NCCC(=O)O)cc1 (racemic) [Example 47, (+/−)-3-(4-(1-(4-(1H-1,2,4-triazol-1-yl)phenoxy)butyl)benzamido)propanoic acid] | 7810
29 | CCCCc1nccn1-c1ccc(OC(CCC)c2ccc(C(=O)NCCC(=O)O)cc2)cc1 (racemic) [Example 48, (+/−)-3-(4-(1-(4-(2-butyl-1H-imidazol-1-yl)phenoxy)butyl)benzamido)propanoic acid] | 8150
30 | CCCC(Oc1ccc(-n2cnc(C)c2C)cc1)c1ccc(C(=O)NCCC(=O)O)cc1 (racemic) [Example 49, (+/−)-3-(4-(1-(4-(4,5-dimethyl-1H-imidazol-1-yl)phenoxy)butyl)benzamido)propanoic acid] | 10300
31 | CCCC(Oc1ccc(-c2cnn(CCC)c2)cc1)c1ccc(C(=O)NCCC(=O)O)cc1 (racemic) [Example 50, (+/−)-3-(4-(1-(4-(1-propyl-1H-pyrazol-4-yl)phenoxy)butyl)benzamido)propanoic acid] | 1560
32 | CCCC(Oc1ccc(-c2cc[nH]n2)cc1)c1ccc(C(=O)NCCC(=O)O)cc1 (racemic) [Example 51, (+/−)-3-(4-(1-(4-(1H-pyrazol-3-yl)phenoxy)butyl)benzamido)propanoic acid] | 1810
33 | CCCC(Oc1ccc(-c2c(C)noc2C)cc1)c1ccc(C(=O)NCCC(=O)O)cc1 (racemic) [Example 52, (+/−)-3-(4-(1-(4-(3,5-dimethylisoxazol-4-yl)phenoxy)butyl)benzamido)propanoic acid] | 2410
